For twelve compounds, pD2 results are on record in ChEMBL document CHEMBL1126732, “Synthesis of and radioligand binding studies with a tritiated pinacidil analogue: receptor interactions of structurally different classes of potassium channel openers and blockers” (J Med Chem, 1993).

Where a name gives a salt, the structure may show the parent alone.

The species named for this test is Rattus norvegicus. Briefly: Vasorelaxant activity expressed as negative logarithm of the concentration causing a 50% inhibition of spontaneous myogenic activity in rat portal vein. It counts as functional.
As to `CC1(C)Oc2ccc(C#N)cc2[C@@H](OC2=CC(=O)CC2)[C@@H]1O`, the pD2 was found to be 7.85. The result for `CC1(C)Oc2ccc(C#N)cc2[C@H](OC2=CC(=O)CC2)[C@H]1O` reads 5.26; that for `CC1(C)Oc2ccc(C#N)cc2C(N2CCCC2=O)C1O` (configuration not stated) [CROMAKALIM], 5.66; that for `Nc1cc(N2CCCCC2)nc(N)[n+]1OS(=O)(=O)[O-]` [MINOXIDIL SULFATE], 7.14. For `CC(N/C(=N\C#N)Nc1ccncc1)C(C)(C)C` (stereo in doubt; 12) [PINACIDIL ANHYDROUS] the value was 6.11; for `C[C@H](N/C(=C\[N+](=O)[O-])Nc1cccnc1)C(C)(C)C`, 7.96; for `CC1(C)C=C(n2ccccc2=O)c2cc(C#N)ccc2O1` [BIMAKALIM], 8.2. Turning to `CC1(C)Oc2ccc(C#N)cc2[C@@H](N2CCCC2=O)[C@@H]1O` [LEVCROMAKALIM], the pD2 is given as 7.89.

Take `CCC(C)(C)/N=C(\NC#N)Nc1cccnc1`: the pD2 turned out to be 8.75.

As to `C[C@@H](N/C(=C\[N+](=O)[O-])Nc1cccnc1)C(C)(C)C`, the pD2 is reported as 6. For `CC(N/C(=N\C#N)Nc1ccncc1)C(C)(C)C` (stereo in doubt; 11) [PINACIDIL ANHYDROUS] the value was 7.47; for `CC1=Nc2ccc(Cl)cc2S(=O)(=O)N1` [DIAZOXIDE], 5.5.
